Reference: paper PMC3703859 (Neuropharmacology, 2010)

Assays:
[1] = target: T1, human DAT V152A (Homo sapiens, UniProt Q01959, V152A); test: [^3H]dopamine uptake in transfected COS7 cells; type: cell-based; conditions: for decrease in potency in inhibition of [^3H]dopamine uptake versus wild type: V152A vs WT
[2] = target: T2, human DAT V152I (Homo sapiens, UniProt Q01959, V152I); test: [^3H]dopamine uptake in transfected COS7 cells; type: cell-based; conditions: for decrease in potency in inhibition of [^3H]dopamine uptake versus wild type: V152I vs WT
[3] = target: T1, human DAT V152A; test: [^3H]CFT binding on intact transfected COS7 cells; conditions: V152A vs WT
[4] = target: T2, human DAT V152I; test: [^3H]CFT binding on intact transfected COS7 cells; conditions: V152I vs WT
[5] = target: wild type human DAT (Homo sapiens, UniProt Q01959); test: [^3H]dopamine uptake in transfected COS7 cells; type: cell-based; conditions: WT DAT
[6] = target: human DAT N157A (Homo sapiens, UniProt Q01959, N157A); test: [^3H]dopamine uptake in transfected COS7 cells; type: cell-based
[7] = target: human DAT N157C (Homo sapiens, UniProt Q01959, N157C); test: [^3H]dopamine uptake in transfected COS7 cells; type: cell-based
[8] = target: human DAT S422A (Homo sapiens, UniProt Q01959, S422A); test: [^3H]dopamine uptake in transfected COS7 cells; type: cell-based
[9] = target: human DAT A479V/A480V (Homo sapiens, UniProt Q01959, A479V/A480V); test: [^3H]dopamine uptake in transfected COS7 cells; type: cell-based
[10] = substrate: NCCc1ccc(O)c(O)c1; test: cells, lysate or membranes; conditions: COS7 cells, 5 min uptake at room temperature, pH 7.4

CN1[C@@H]2CC[C@H]1C[C@@H](OC(c1ccccc1)c1ccccc1)C2 [BZT, benztropine]
decrease in potency in inhibition of [^3H]dopamine uptake versus wild type [1]: ~ 3 fold
decrease in potency in inhibition of [^3H]dopamine uptake versus wild type [2]: no change
reduction in apparent affinity in [^3H]CFT competition binding versus wild type [3]: ~ 15 fold
reduction in apparent affinity in [^3H]CFT competition binding versus wild type [4]: ~ 15 fold

CCCCN1[C@@H]2CC[C@H]1CC(OC(c1ccc(F)cc1)c1ccc(F)cc1)C2 (some centres unmarked) [JHW007]
decrease in potency in inhibition of [^3H]dopamine uptake versus wild type [1]: ~ 2 fold
decrease in potency in inhibition of [^3H]dopamine uptake versus wild type [2]: ~ 6 fold
reduction in apparent affinity in [^3H]CFT competition binding versus wild type [3]: 10–20 fold
reduction in apparent affinity in [^3H]CFT competition binding versus wild type [4]: 10–20 fold

NCCc1ccc(O)c(O)c1 [[^3H]Dopamine, 3,4-[Ring-2,5,6-^3H]-dihydroxyphenylethylamine]
Vmax ± S.E. of [^3H]dopamine uptake [5]: 5275 ± 555 fmol/min/10^5 cells
Vmax ± S.E. of [^3H]dopamine uptake ([1]; V152A, COS7 cells): 614 ± 167 fmol/min/10^5 cells
Vmax ± S.E. of [^3H]dopamine uptake ([2]; V152I, COS7 cells): 242 ± 37 fmol/min/10^5 cells
Vmax ± S.E. of [^3H]dopamine uptake [6]: 598 ± 179 fmol/min/10^5 cells
Vmax ± S.E. of [^3H]dopamine uptake [7]: 1768 ± 159 fmol/min/10^5 cells
increase in Km value for [^3H]dopamine uptake versus wild type ([8]; S422A vs WT): ~ 4 fold
Vmax ± S.E. of [^3H]dopamine uptake ([8]; S422A, COS7 cells): 320 ± 40 fmol/min/10^5 cells
Vmax ± S.E. of [^3H]dopamine uptake [9]: 2231 ± 157 fmol/min/10^5 cells

B1: wild type human DAT (Homo sapiens) (protein)
chain: MSKSKCSVGLMSSVVAPAKEPNAVGPKEVELILVKEQNGVQLTSSTLTNPRQSPVEAQDRETWGKKIDFLLSVIGFAVDLANVWRFPYLCYKNGGGAFLVPYLLFMVIAGMPLFYMELALGQFNREGAAGVWKICPILKGVGFTVILISLYVGFFYNVIIAWALHYLFSSFTTELPWIHCNNSWNSPNCSDAHPGDSSGDSSGLNDTFGTTPAAEYFERGVLHLHQSHGIDDLGPPRWQLTACLVLVIVLLYFSLWKGVKTSGKVVWITATMPYVVLTALLLRGVTLPGAIDGIRAYLSVDFYRLCEASVWIDAATQVCFSLGVGFGVLIAFSSYNKFTNNCYRDAIVTTSINSLTSFSSGFVVFSFLGYMAQKHSVPIGDVAKDGPGLIFIIYPEAIATLPLSSAWAVVFFIMLLTLGIDSAMGGMESVITGLIDEFQLLHRHRELFTLFIVLATFLLSLFCVTNGGIYVFTLLDHFAAGTSILFGVLIEAIGVAWFYGVGQFSDDIQQMTGQRPSLYWRLCWKLVSPCFLLFVVVVSIVTFRPPHYGAYIFPDWANALGWVIATSSMAMVPIYAAYKFCSLPGSFREKLAYAIAPEKDRELVDRGEVRQFTLRHWLKV
Km ([10]; other: WT DAT): 986 [861–1130] nM

B2: human DAT V152A (Homo sapiens; V152A) (protein)
chain: MSKSKCSVGLMSSVVAPAKEPNAVGPKEVELILVKEQNGVQLTSSTLTNPRQSPVEAQDRETWGKKIDFLLSVIGFAVDLANVWRFPYLCYKNGGGAFLVPYLLFMVIAGMPLFYMELALGQFNREGAAGVWKICPILKGVGFTVILISLYAGFFYNVIIAWALHYLFSSFTTELPWIHCNNSWNSPNCSDAHPGDSSGDSSGLNDTFGTTPAAEYFERGVLHLHQSHGIDDLGPPRWQLTACLVLVIVLLYFSLWKGVKTSGKVVWITATMPYVVLTALLLRGVTLPGAIDGIRAYLSVDFYRLCEASVWIDAATQVCFSLGVGFGVLIAFSSYNKFTNNCYRDAIVTTSINSLTSFSSGFVVFSFLGYMAQKHSVPIGDVAKDGPGLIFIIYPEAIATLPLSSAWAVVFFIMLLTLGIDSAMGGMESVITGLIDEFQLLHRHRELFTLFIVLATFLLSLFCVTNGGIYVFTLLDHFAAGTSILFGVLIEAIGVAWFYGVGQFSDDIQQMTGQRPSLYWRLCWKLVSPCFLLFVVVVSIVTFRPPHYGAYIFPDWANALGWVIATSSMAMVPIYAAYKFCSLPGSFREKLAYAIAPEKDRELVDRGEVRQFTLRHWLKV
Km ([10]; other: V152A): 3090 [2310–4130] nM

B3: human DAT V152I (Homo sapiens; V152I) (protein)
chain: MSKSKCSVGLMSSVVAPAKEPNAVGPKEVELILVKEQNGVQLTSSTLTNPRQSPVEAQDRETWGKKIDFLLSVIGFAVDLANVWRFPYLCYKNGGGAFLVPYLLFMVIAGMPLFYMELALGQFNREGAAGVWKICPILKGVGFTVILISLYIGFFYNVIIAWALHYLFSSFTTELPWIHCNNSWNSPNCSDAHPGDSSGDSSGLNDTFGTTPAAEYFERGVLHLHQSHGIDDLGPPRWQLTACLVLVIVLLYFSLWKGVKTSGKVVWITATMPYVVLTALLLRGVTLPGAIDGIRAYLSVDFYRLCEASVWIDAATQVCFSLGVGFGVLIAFSSYNKFTNNCYRDAIVTTSINSLTSFSSGFVVFSFLGYMAQKHSVPIGDVAKDGPGLIFIIYPEAIATLPLSSAWAVVFFIMLLTLGIDSAMGGMESVITGLIDEFQLLHRHRELFTLFIVLATFLLSLFCVTNGGIYVFTLLDHFAAGTSILFGVLIEAIGVAWFYGVGQFSDDIQQMTGQRPSLYWRLCWKLVSPCFLLFVVVVSIVTFRPPHYGAYIFPDWANALGWVIATSSMAMVPIYAAYKFCSLPGSFREKLAYAIAPEKDRELVDRGEVRQFTLRHWLKV
Km ([10]; other: V152I): 4370 [3180–6010] nM

B4: human DAT N157A (Homo sapiens; N157A) (protein)
chain: MSKSKCSVGLMSSVVAPAKEPNAVGPKEVELILVKEQNGVQLTSSTLTNPRQSPVEAQDRETWGKKIDFLLSVIGFAVDLANVWRFPYLCYKNGGGAFLVPYLLFMVIAGMPLFYMELALGQFNREGAAGVWKICPILKGVGFTVILISLYVGFFYAVIIAWALHYLFSSFTTELPWIHCNNSWNSPNCSDAHPGDSSGDSSGLNDTFGTTPAAEYFERGVLHLHQSHGIDDLGPPRWQLTACLVLVIVLLYFSLWKGVKTSGKVVWITATMPYVVLTALLLRGVTLPGAIDGIRAYLSVDFYRLCEASVWIDAATQVCFSLGVGFGVLIAFSSYNKFTNNCYRDAIVTTSINSLTSFSSGFVVFSFLGYMAQKHSVPIGDVAKDGPGLIFIIYPEAIATLPLSSAWAVVFFIMLLTLGIDSAMGGMESVITGLIDEFQLLHRHRELFTLFIVLATFLLSLFCVTNGGIYVFTLLDHFAAGTSILFGVLIEAIGVAWFYGVGQFSDDIQQMTGQRPSLYWRLCWKLVSPCFLLFVVVVSIVTFRPPHYGAYIFPDWANALGWVIATSSMAMVPIYAAYKFCSLPGSFREKLAYAIAPEKDRELVDRGEVRQFTLRHWLKV
Km ([10]; other: N157A): 3240 [2720–3870] nM

B5: human DAT N157C (Homo sapiens; N157C) (protein)
chain: MSKSKCSVGLMSSVVAPAKEPNAVGPKEVELILVKEQNGVQLTSSTLTNPRQSPVEAQDRETWGKKIDFLLSVIGFAVDLANVWRFPYLCYKNGGGAFLVPYLLFMVIAGMPLFYMELALGQFNREGAAGVWKICPILKGVGFTVILISLYVGFFYCVIIAWALHYLFSSFTTELPWIHCNNSWNSPNCSDAHPGDSSGDSSGLNDTFGTTPAAEYFERGVLHLHQSHGIDDLGPPRWQLTACLVLVIVLLYFSLWKGVKTSGKVVWITATMPYVVLTALLLRGVTLPGAIDGIRAYLSVDFYRLCEASVWIDAATQVCFSLGVGFGVLIAFSSYNKFTNNCYRDAIVTTSINSLTSFSSGFVVFSFLGYMAQKHSVPIGDVAKDGPGLIFIIYPEAIATLPLSSAWAVVFFIMLLTLGIDSAMGGMESVITGLIDEFQLLHRHRELFTLFIVLATFLLSLFCVTNGGIYVFTLLDHFAAGTSILFGVLIEAIGVAWFYGVGQFSDDIQQMTGQRPSLYWRLCWKLVSPCFLLFVVVVSIVTFRPPHYGAYIFPDWANALGWVIATSSMAMVPIYAAYKFCSLPGSFREKLAYAIAPEKDRELVDRGEVRQFTLRHWLKV
Km ([10]; other: N157C): 2710 [2170–3380] nM

B6: human DAT S422A (Homo sapiens; S422A) (protein)
chain: MSKSKCSVGLMSSVVAPAKEPNAVGPKEVELILVKEQNGVQLTSSTLTNPRQSPVEAQDRETWGKKIDFLLSVIGFAVDLANVWRFPYLCYKNGGGAFLVPYLLFMVIAGMPLFYMELALGQFNREGAAGVWKICPILKGVGFTVILISLYVGFFYNVIIAWALHYLFSSFTTELPWIHCNNSWNSPNCSDAHPGDSSGDSSGLNDTFGTTPAAEYFERGVLHLHQSHGIDDLGPPRWQLTACLVLVIVLLYFSLWKGVKTSGKVVWITATMPYVVLTALLLRGVTLPGAIDGIRAYLSVDFYRLCEASVWIDAATQVCFSLGVGFGVLIAFSSYNKFTNNCYRDAIVTTSINSLTSFSSGFVVFSFLGYMAQKHSVPIGDVAKDGPGLIFIIYPEAIATLPLSSAWAVVFFIMLLTLGIDAAMGGMESVITGLIDEFQLLHRHRELFTLFIVLATFLLSLFCVTNGGIYVFTLLDHFAAGTSILFGVLIEAIGVAWFYGVGQFSDDIQQMTGQRPSLYWRLCWKLVSPCFLLFVVVVSIVTFRPPHYGAYIFPDWANALGWVIATSSMAMVPIYAAYKFCSLPGSFREKLAYAIAPEKDRELVDRGEVRQFTLRHWLKV
Km ([10]; other: S422A): 3950 [3730–4190] nM

B7: human DAT A479V/A480V (Homo sapiens; A479V/A480V) (protein)
chain: MSKSKCSVGLMSSVVAPAKEPNAVGPKEVELILVKEQNGVQLTSSTLTNPRQSPVEAQDRETWGKKIDFLLSVIGFAVDLANVWRFPYLCYKNGGGAFLVPYLLFMVIAGMPLFYMELALGQFNREGAAGVWKICPILKGVGFTVILISLYVGFFYNVIIAWALHYLFSSFTTELPWIHCNNSWNSPNCSDAHPGDSSGDSSGLNDTFGTTPAAEYFERGVLHLHQSHGIDDLGPPRWQLTACLVLVIVLLYFSLWKGVKTSGKVVWITATMPYVVLTALLLRGVTLPGAIDGIRAYLSVDFYRLCEASVWIDAATQVCFSLGVGFGVLIAFSSYNKFTNNCYRDAIVTTSINSLTSFSSGFVVFSFLGYMAQKHSVPIGDVAKDGPGLIFIIYPEAIATLPLSSAWAVVFFIMLLTLGIDSAMGGMESVITGLIDEFQLLHRHRELFTLFIVLATFLLSLFCVTNGGIYVFTLLDHFVVGTSILFGVLIEAIGVAWFYGVGQFSDDIQQMTGQRPSLYWRLCWKLVSPCFLLFVVVVSIVTFRPPHYGAYIFPDWANALGWVIATSSMAMVPIYAAYKFCSLPGSFREKLAYAIAPEKDRELVDRGEVRQFTLRHWLKV
Km ([10]; other: A479V/A480V): 1620 [1350–1940] nM
